Data from ChEMBL document CHEMBL6115029, “Discovery of Daraxonrasib (RMC-6236), a Potent and Orally Bioavailable RAS(ON) Multi-selective, Noncovalent Tri-complex Inhibitor for the Treatment of Patients with Multiple RAS-Addicted Cancers” (J Med Chem, 2025).
Active and inactive are the calls of the source. No cut-off for these calls is given here.

Tests used:
[1] = Clearance in male cynomolgus monkey at 1 mg/kg, iv measured after 24 hrs by LC-MS/MS analysis; assay type: ADME, organism-based, Macaca fascicularis; details: in vivo
NCI-H441 [2] = test: Inhibition of ERK1/2 phosphorylation in human NCI-H441 cells harboring KRAS G12V mutant incubated for 4 hrs by AlphaLISA assay; assay type: cell-based
[3] = Inhibition of 6His-tagged KRAS G12C mutant(1 to 169 residues)/GST-tagged GMPPNP-bound BRAF RBD (155 to 229 reisudes)/Cyclophilin A (unknown origin) tri-complex protein-protein interaction incubated for 3 hrs by TR-FERT based disruption assay; set-up: species or system Homo sapiens
[4] = Toxicity in female BALB/c nude mouse xenografted with human NCI-H1373 cells harboring KRAS G12C/KRAS G12C mutant assessed as effect on body weight at 25 mg/kg, po administered once daily for 28 days; assay type: organism-based; details: in vivo, 672 h, time 28 day
[5] = Toxicity in female BALB/c nude mouse xenografted with human NCI-H441 cells harboring wildtype KRAS/KRAS G12V mutant assessed as effect on body weight at 25 mg/kg, po administered once daily for 28 days; assay type: organism-based; details: in vivo, 672 h, time 28 day
[6] = Clearance in female BALB/c mouse blood at 1 mg/kg, iv measured after 24 hrs by LC-MS/MS analysis; assay type: ADME, organism-based
[7] = (§1) In vivo inhibition of MAPK signaling pathway in female BALB/c nude mouse xenografted with human MIA PaCa-2 cells harboring KRAS G12C/G12C mutant assessed as reduction in DUSP6 mRNA level in tumor at 3 mg/kg, po administered as single dose and measured after 8 hrs by qPCR analysis relative to control; assay type: functional
[8] = Half-life in female BALB/c mouse at 1 mg/kg, iv measured after 24 hrs by LC-MS/MS analysis; assay type: ADME, organism-based; details: in vivo
NCI-H1373 = test: Antitumor activity against human NCI-H1373 cells harboring KRAS G12C/KRAS G12C mutant xenografted in female BALB/c nude mouse assessed as tumor regression at 25 mg/kg, po administered once daily for 28 days; assay type: functional, organism-based; details: time 28.0 day
[9] = Genotoxicity in Salmonella typhimurium by Ames test; assay type: toxicity; details: salmonella enterica subsp. enterica serovar typhimurium
[10] = Toxicity in female BALB/c nude mouse xenografted with human MIA PaCa-2 cells harboring KRAS G12C/G12C mutant assessed as effect on body weight at 25 mg/kg, po administered once daily for 28 days; assay type: organism-based; details: in vivo, 672 h, time 28 day
[11] = Toxicity in human PBL cells in presence of rat S9 fraction by micronucleus assay; assay type: subcellular
Hs766T = test: Inhibition of ERK1/2 phosphorylation in human Hs766T cells harboring […] mutant incubated for 4 hrs by AlphaLISA assay; assay type: cell-based
[12] = Kinetic solubility of compound in PBS at pH 5.0 measured after 5 hrs by UV analysis; assay type: physicochemical; details: read-out: Kinetic_solubility
[13] = Half-life in male Beagle dog at 1 mg/kg, iv measured after 24 hrs by LC-MS/MS analysis; assay type: ADME, organism-based, Canis lupus familiaris; details: in vivo
HCT-116 = test: Cytotoxicity against human HCT-116 cells harboring KRAS G13D mutant cultured as 2D cells assessed as inhibition of cell proliferation incubated for 120 hrs by CellTiter-Glo luminescence assay; assay type: functional, cell-based
[14] = Volume of distribution at steady state in male Sprague-Dawley rat at 1 mg/kg, iv measured after 24 hrs by LC-MS/MS analysis; assay type: ADME, organism-based; details: in vivo, read-out: Vdss
[15] = Volume of distribution at steady state in male cynomolgus monkey at 1 mg/kg, iv measured after 24 hrs by LC-MS/MS analysis; assay type: ADME, organism-based, Macaca fascicularis; details: in vivo, read-out: Vdss
[16] = Oral bioavailability in female BALB/c mouse blood at 10 mg/kg measured after 24 hrs by LC-MS/MS analysis; assay type: ADME, organism-based
SK-MEL-30 [17] = test: Inhibition of ERK1/2 phosphorylation in human SK-MEL-30 cells harboring […] mutant incubated for 4 hrs by AlphaLISA assay; assay type: cell-based
[18] = as §1, with “25” for “3”; assay type: functional
[19] = Toxicity in human PBL cells in absence of rat S9 fraction by micronucleus assay; assay type: cell-based
[20] = Apparent permeability across apical to basolateral side in human Caco-2 cells at 5 uM incubated for 2 hrs by LC-MS/MS analysis; assay type: ADME, cell-based
Mus musculus = test: In vivo inhibition of MAPK signaling pathway in female BALB/c nude mouse xenografted with human MIA PaCa-2 cells harboring KRAS G12C/G12C mutant assessed as reduction in DUSP6 mRNA level in tumor at 25 mg/kg, po administered as single dose and measured upto 48 hrs by qPCR analysis; assay type: functional, organism-based
[21] = Oral bioavailability in female BALB/c mouse plasma at 10 mg/kg measured after 24 hrs by LC-MS/MS analysis; assay type: ADME, organism-based
[22] = Volume of distribution at steady state in female BALB/c mouse at 1 mg/kg, iv measured after 24 hrs by LC-MS/MS analysis; assay type: ADME, organism-based; details: in vivo, read-out: Vdss
HPAF-II = test: Antitumor activity against human HPAF-II cells harboring wildtype KRAS/KRAS G12D mutant xenografted in female BALB/c mouse model assessed as tumor regression at 25 mg/kg, po administered once daily for 28 days; assay type: functional, organism-based; details: time 28.0 day
[23] = Half-life in male cynomolgus monkey at 1 mg/kg, iv measured after 24 hrs by LC-MS/MS analysis; assay type: ADME, organism-based, Macaca fascicularis; details: in vivo
[24] = Lipophilicity, logD of compound at pH 7.4 by Agilent 1290 II uPLC analysis; assay type: physicochemical; details: buffer
SK-MEL-30 [25] = test: Cytotoxicity against human SK-MEL-30 cells harboring […] mutant cultured as 2D cells assessed as inhibition of cell proliferation incubated for 120 hrs by CellTiter-Glo luminescence assay; assay type: functional, cell-based
[26] = Mutagenicity in Salmonella typhimurium by Ames test; assay type: toxicity; details: salmonella enterica subsp. enterica serovar typhimurium
PSN1 = test: Cytotoxicity against human PSN1 cells harboring KRAS G12R mutant cultured as 2D cells assessed as inhibition of cell proliferation incubated for 120 hrs by CellTiter-Glo luminescence assay; assay type: functional, cell-based
[27] = Tmax in male Beagle dog at 5 mg/kg, po measured after 24 hrs by LC-MS/MS analysis; assay type: ADME, organism-based, Canis lupus familiaris; details: in vivo
NCI-H441 [28] = test: Cytotoxicity against human NCI-H441 cells harboring KRAS G12V mutant cultured as 2D cells assessed as inhibition of cell proliferation incubated for 120 hrs by CellTiter-Glo luminescence assay; assay type: functional, cell-based
[29] = Inhibition of 6His-tagged KRAS G12V mutant(1 to 169 residues)/GST-tagged GMPPNP-bound BRAF RBD (155 to 229 reisudes)/Cyclophilin A (unknown origin) tri-complex protein-protein interaction incubated for 3 hrs by TR-FERT based disruption assay; set-up: species or system Homo sapiens
[30] = Oral bioavailability in male cynomolgus monkey at 10 mg/kg measured after 24 hrs by LC-MS/MS analysis; assay type: ADME, organism-based, Macaca fascicularis; details: in vivo
[31] = molecular target: Sodium channel protein type 5 subunit alpha (Homo sapiens, UniProt Q14524); test: Inhibition of human Nav1.5; assay type: toxicity
Sequence of Sodium channel protein type 5 subunit alpha (Q14524 whole entry): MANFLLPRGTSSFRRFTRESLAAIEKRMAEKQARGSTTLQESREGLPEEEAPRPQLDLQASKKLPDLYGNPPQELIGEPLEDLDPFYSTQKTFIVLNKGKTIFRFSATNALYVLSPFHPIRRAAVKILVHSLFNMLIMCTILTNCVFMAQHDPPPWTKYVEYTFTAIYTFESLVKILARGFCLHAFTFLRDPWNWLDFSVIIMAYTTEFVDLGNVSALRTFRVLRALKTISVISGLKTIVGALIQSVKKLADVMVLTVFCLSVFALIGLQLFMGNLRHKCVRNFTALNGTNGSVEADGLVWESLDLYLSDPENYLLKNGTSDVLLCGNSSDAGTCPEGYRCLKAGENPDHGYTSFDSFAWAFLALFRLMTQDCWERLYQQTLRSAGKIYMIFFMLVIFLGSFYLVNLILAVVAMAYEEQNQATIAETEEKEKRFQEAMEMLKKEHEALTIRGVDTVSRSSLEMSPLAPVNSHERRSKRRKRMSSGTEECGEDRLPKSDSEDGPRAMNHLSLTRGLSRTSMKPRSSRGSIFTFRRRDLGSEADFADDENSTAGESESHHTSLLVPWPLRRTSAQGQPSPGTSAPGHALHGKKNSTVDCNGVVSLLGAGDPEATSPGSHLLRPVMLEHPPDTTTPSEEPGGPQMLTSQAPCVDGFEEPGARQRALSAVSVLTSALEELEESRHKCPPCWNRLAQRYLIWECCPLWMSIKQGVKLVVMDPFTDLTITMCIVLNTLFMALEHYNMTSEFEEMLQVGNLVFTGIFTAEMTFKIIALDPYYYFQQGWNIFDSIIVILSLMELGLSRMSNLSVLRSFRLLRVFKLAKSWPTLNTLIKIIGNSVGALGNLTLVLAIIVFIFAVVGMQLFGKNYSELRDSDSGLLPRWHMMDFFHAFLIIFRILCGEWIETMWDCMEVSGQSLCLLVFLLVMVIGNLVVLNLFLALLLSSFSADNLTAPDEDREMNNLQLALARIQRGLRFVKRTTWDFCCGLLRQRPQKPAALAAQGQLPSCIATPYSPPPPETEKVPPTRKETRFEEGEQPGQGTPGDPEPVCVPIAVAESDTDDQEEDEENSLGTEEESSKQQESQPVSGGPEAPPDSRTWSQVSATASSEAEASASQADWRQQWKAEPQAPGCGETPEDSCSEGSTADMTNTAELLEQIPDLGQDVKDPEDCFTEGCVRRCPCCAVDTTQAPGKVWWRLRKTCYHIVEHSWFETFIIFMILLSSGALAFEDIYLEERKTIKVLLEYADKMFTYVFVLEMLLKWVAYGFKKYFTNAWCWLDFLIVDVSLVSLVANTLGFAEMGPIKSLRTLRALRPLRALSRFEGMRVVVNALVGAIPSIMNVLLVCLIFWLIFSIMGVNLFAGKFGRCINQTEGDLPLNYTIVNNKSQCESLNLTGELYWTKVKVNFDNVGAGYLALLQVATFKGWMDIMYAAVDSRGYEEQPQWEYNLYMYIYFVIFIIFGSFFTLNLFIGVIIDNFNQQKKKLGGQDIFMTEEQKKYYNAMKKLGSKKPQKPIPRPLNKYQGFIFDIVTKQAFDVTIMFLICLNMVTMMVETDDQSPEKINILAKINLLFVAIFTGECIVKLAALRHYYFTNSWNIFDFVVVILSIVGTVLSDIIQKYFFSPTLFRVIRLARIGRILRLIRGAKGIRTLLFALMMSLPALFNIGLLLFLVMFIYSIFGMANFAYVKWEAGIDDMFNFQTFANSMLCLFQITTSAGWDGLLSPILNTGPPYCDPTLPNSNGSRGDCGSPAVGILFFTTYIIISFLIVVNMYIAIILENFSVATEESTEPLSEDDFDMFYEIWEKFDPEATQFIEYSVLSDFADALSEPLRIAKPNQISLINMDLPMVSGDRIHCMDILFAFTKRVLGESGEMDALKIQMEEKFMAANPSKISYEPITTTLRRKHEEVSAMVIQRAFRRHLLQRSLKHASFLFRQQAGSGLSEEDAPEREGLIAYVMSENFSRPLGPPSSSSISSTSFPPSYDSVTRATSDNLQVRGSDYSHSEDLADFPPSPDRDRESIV

clearance [1]: 8.33 mL/min/kg | IC50 [3]: 35 nM | clearance [6]: 8.33 mL/min/kg | half-life [8]: 2.2 h | solubility kinetic at 5 h [12]: > 100 µM | half-life [13]: 6.1 h | Vd [14]: 1.9 L/kg | Vd [15]: 2.9 L/kg | bioavailability [16]: 33% | Papp A→B at 2 h, 5 µM [20]: 0.4 ×10⁻⁶ cm/s | bioavailability [21]: 52% | Vd [22]: 1.3 L/kg | half-life [23]: 6.2 h | logD [24]: 4.5 | Tmax [27]: 0.7 h | IC50 [29]: 48 nM | bioavailability [30]: 24%
Compound: CCn1c(-c2cc(N3CCN(C)CC3)cnc2[C@H](C)OC)c2c3cc(ccc31)-c1csc(n1)C[C@H](NC(=O)[C@H]1C[C@@H]1C)C(=O)N1CCC[C@H](N1)C(=O)OCC(C)(C)C2
inhibition (NCI-H441 [2]): Active | Activity [4]: Non-toxic | Activity [5]: Non-toxic | inhibition in vivo at 3 mg/kg [7]: 93% | Activity (NCI-H1373): Active | Activity [9]: Non-toxic | Activity [10]: Non-toxic | Activity [11]: Non-toxic | inhibition (Hs766T): Active | Activity (HCT-116): Active | inhibition (SK-MEL-30 [17]): Active | inhibition in vivo at 25 mg/kg [18]: 98% | Activity [19]: Non-toxic | inhibition (Mus musculus): Active | Activity (HPAF-II): Active | Activity (SK-MEL-30 [25]): Active | Activity [26]: Non-toxic | Activity (PSN1): Active | Activity (NCI-H441 [28]): Active | IC50 [31]: > 30000 nM
